Data published in ChEMBL document CHEMBL1201862, “PubChem BioAssay data set” (2004).
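A five-concentration, 48-hour dose response in 96-well plates underlies each endpoint, interpolated linearly between surrounding concentrations. GI50 = concentration required for 50% inhibition of growth.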 Active and inactive are the calls of the source. No stated cut-off is given here; in the data, active = GI50 up to about 1.1 µM and inactive = higher.

Key:
Assay in all cases: inhibition of tumour cell growth, NCI panel, 48 h
[1] = tested on: MOLT-4
[2] = tested on: SK-MEL-5
[3] = tested on: Malme-3M
[4] = tested on: RXF 393
[5] = tested on: RPMI-8226
[6] = tested on: KM-20L2
[7] = tested on: SN12C
[8] = tested on: M14
[9] = tested on: SK-OV-3
[10] = tested on: HL-60
[11] = tested on: 786-0
[12] = tested on: K562
[13] = tested on: UO-31
[14] = tested on: COLO 205
[15] = tested on: ACHN
[16] = tested on: OVCAR-3
[17] = tested on: HCT-15
[18] = tested on: HT-29
[19] = tested on: SF-268
[20] = tested on: HOP-62
[21] = tested on: DLD-1
[22] = tested on: XF498
[23] = tested on: SW-620
[24] = tested on: SNB-19
[25] = tested on: DMS-114
[26] = tested on: UACC-257
[27] = tested on: NCI-H460
[28] = tested on: HCT-116
[29] = tested on: OVCAR-4
[30] = tested on: A498
[31] = tested on: KM12
[32] = tested on: CCRF-CEM
[33] = tested on: HOP-92
[34] = tested on: M19-MEL
[35] = tested on: DMS-273
[36] = tested on: UACC-62
[37] = tested on: U-251
[38] = tested on: LXFL 529
[39] = tested on: CAKI-1
[40] = tested on: TK-10
[41] = tested on: LOX IMVI
[42] = tested on: NCI-H23
[43] = tested on: RXF 631
[44] = tested on: HOP-18
[45] = tested on: IGROV-1
[46] = tested on: OVCAR-8
[47] = tested on: SK-MEL-2
[48] = tested on: SNB-75
[49] = tested on: NCI-H226
[50] = tested on: A549
[51] = tested on: SK-MEL-28
[52] = tested on: NCI-H522
[53] = tested on: OVCAR-5
[54] = tested on: SF-295
[55] = tested on: HCC 2998
[56] = tested on: SF-539
[57] = tested on: EKVX
[58] = tested on: SNB-78
[59] = tested on: SR

SMILES: COC(=O)C(=O)C(C(=O)C(=O)Nc1ccc([N+](=O)[O-])cc1)c1nc2ccccc2nc1O (stereo not drawn)
- GI50 [1]: > 100 µM (inactive)
- GI50 [2]: 43.6 µM (inactive)
- GI50 [3]: > 100 µM (inactive)
- GI50 [4]: > 100 µM (inactive)
- GI50 [5]: > 100 µM (inactive)
- GI50 [6]: 22.1 µM (inactive)
- GI50 [7]: > 100 µM (inactive)
- GI50 [8]: 42.2 µM (inactive)
- GI50 [9]: > 100 µM (inactive)
- GI50 [10]: > 100 µM (inactive)
- GI50 [11]: > 100 µM (inactive)
- GI50 [12]: 39.1 µM (inactive)
- GI50 [13]: > 100 µM (inactive)
- GI50 [14]: > 100 µM (inactive)
- GI50 [15]: 55.2 µM (inactive)
- GI50 [16]: > 100 µM (inactive)
- GI50 [17]: 15 µM
- GI50 [18]: 81.5 µM (inactive)
- GI50 [19]: > 100 µM (inactive)
- GI50 [20]: 39.6 µM (inactive)
- GI50 [21]: > 100 µM (inactive)
- GI50 [22]: > 100 µM (inactive)
- GI50 [23]: > 100 µM (inactive)
- GI50 [24]: > 100 µM (inactive)
- GI50 [25]: > 100 µM (inactive)
- GI50 [26]: 55.7 µM (inactive)
- GI50 [27]: > 100 µM (inactive)
- GI50 [28]: > 100 µM (inactive)
- GI50 [29]: > 100 µM (inactive)
- GI50 [30]: > 100 µM (inactive)
- GI50 [31]: 57.3 µM (inactive)
- GI50 [32]: > 100 µM (inactive)
- GI50 [33]: > 100 µM (inactive)
- GI50 [34]: > 100 µM (inactive)
- GI50 [35]: 47.1 µM (inactive)
- GI50 [36]: 19.6 µM (inactive)
- GI50 [37]: > 100 µM (inactive)
- GI50 [38]: 34.2 µM (inactive)
- GI50 [39]: 53.2 µM (inactive)
- GI50 [40]: > 100 µM (inactive)
- GI50 [41]: > 100 µM (inactive)
- GI50 [42]: > 100 µM (inactive)
- GI50 [43]: > 100 µM (inactive)
- GI50 [44]: > 100 µM (inactive)
- GI50 [45]: > 100 µM (inactive)
- GI50 [46]: > 100 µM (inactive)
- GI50 [47]: > 100 µM (inactive)
- GI50 [48]: > 100 µM (inactive)
- GI50 [49]: > 100 µM (inactive)
- GI50 [50]: > 100 µM (inactive)
- GI50 [51]: > 100 µM (inactive)
- GI50 [52]: > 100 µM (inactive)

SMILES: Cn1c(=O)ccc2cc(C(=O)c3ccccc3)ccc21
- GI50 [1]: 69.7 µM (inactive)
- GI50 [2]: 22.8 µM (inactive)
- GI50 [3]: > 100 µM (inactive)
- GI50 [5]: 47.5 µM (inactive)
- GI50 [53]: > 100 µM (inactive)
- GI50 [6]: 73.5 µM (inactive)
- GI50 [7]: 46.6 µM (inactive)
- GI50 [8]: > 100 µM (inactive)
- GI50 [9]: > 100 µM (inactive)
- GI50 [10]: 23.6 µM (inactive)
- GI50 [11]: 83.2 µM (inactive)
- GI50 [12]: 44.1 µM (inactive)
- GI50 [14]: > 100 µM (inactive)
- GI50 [15]: 36.8 µM (inactive)
- GI50 [16]: 44.4 µM (inactive)
- GI50 [17]: 53.3 µM
- GI50 [18]: 46 µM (inactive)
- GI50 [19]: 76.6 µM (inactive)
- GI50 [20]: > 100 µM (inactive)
- GI50 [21]: > 100 µM (inactive)
- GI50 [22]: 16.7 µM (inactive)
- GI50 [23]: > 100 µM (inactive)
- GI50 [24]: 68.1 µM (inactive)
- GI50 [25]: 22.1 µM (inactive)
- GI50 [54]: 79.3 µM (inactive)
- GI50 [27]: > 100 µM (inactive)
- GI50 [28]: 73.5 µM (inactive)
- GI50 [29]: 46.9 µM (inactive)
- GI50 [30]: 32.6 µM (inactive)
- GI50 [31]: > 100 µM (inactive)
- GI50 [32]: 69.7 µM (inactive)
- GI50 [33]: 34.8 µM (inactive)
- GI50 [34]: 55.3 µM (inactive)
- GI50 [35]: 35.3 µM (inactive)
- GI50 [36]: 14.6 µM (inactive)
- GI50 [37]: 84.9 µM (inactive)
- GI50 [38]: 45.8 µM (inactive)
- GI50 [39]: 39.4 µM (inactive)
- GI50 [40]: 35.2 µM (inactive)
- GI50 [41]: 57.3 µM (inactive)
- GI50 [55]: > 100 µM (inactive)
- GI50 [42]: 55 µM (inactive)
- GI50 [43]: 64.3 µM (inactive)
- GI50 [44]: 36.6 µM (inactive)
- GI50 [45]: 24.7 µM (inactive)
- GI50 [46]: 58.6 µM (inactive)
- GI50 [56]: 42.3 µM (inactive)
- GI50 [47]: > 100 µM (inactive)
- GI50 [48]: 12.3 µM (inactive)
- GI50 [49]: 21.2 µM (inactive)
- GI50 [57]: 34.2 µM (inactive)
- GI50 [50]: 71.1 µM (inactive)
- GI50 [51]: > 100 µM (inactive)
- GI50 [52]: 20.4 µM (inactive)

SMILES: CCOC(=O)C1=C(C)NC2=C(C(=O)N(c3ccccc3)C2c2ccccc2)C1c1ccccc1 (stereo not drawn)
- GI50 [1]: 19.8 µM (inactive)
- GI50 [2]: 15.1 µM (inactive)
- GI50 [3]: 17.9 µM (inactive)
- GI50 [5]: 17.1 µM (inactive)
- GI50 [53]: 16.3 µM (inactive)
- GI50 [7]: 17.9 µM (inactive)
- GI50 [8]: 16.7 µM (inactive)
- GI50 [9]: 17.1 µM (inactive)
- GI50 [10]: 26.1 µM (inactive)
- GI50 [11]: 18.9 µM (inactive)
- GI50 [12]: 29.9 µM (inactive)
- GI50 [13]: 19.8 µM (inactive)
- GI50 [14]: 18.7 µM (inactive)
- GI50 [15]: 14.1 µM (inactive)
- GI50 [16]: 12.3 µM (inactive)
- GI50 [17]: 16 µM
- GI50 [18]: 19.9 µM (inactive)
- GI50 [19]: 15.7 µM (inactive)
- GI50 [20]: 17.1 µM (inactive)
- GI50 [21]: 16.5 µM (inactive)
- GI50 [22]: 18.1 µM (inactive)
- GI50 [23]: 19.8 µM (inactive)
- GI50 [25]: 16.7 µM (inactive)
- GI50 [26]: 18.2 µM (inactive)
- GI50 [54]: > 10 µM (inactive)
- GI50 [28]: 16.9 µM (inactive)
- GI50 [31]: 17.1 µM (inactive)
- GI50 [32]: 21.2 µM (inactive)
- GI50 [33]: 11.2 µM (inactive)
- GI50 [34]: 17.3 µM (inactive)
- GI50 [36]: 12.6 µM (inactive)
- GI50 [37]: 15.1 µM (inactive)
- GI50 [38]: 16 µM (inactive)
- GI50 [39]: 16 µM (inactive)
- GI50 [40]: 18.9 µM (inactive)
- GI50 [58]: 19.4 µM (inactive)
- GI50 [41]: 18.1 µM (inactive)
- GI50 [55]: 17.7 µM (inactive)
- GI50 [42]: 17.2 µM (inactive)
- GI50 [43]: 16.1 µM (inactive)
- GI50 [59]: 16.9 µM (inactive)
- GI50 [44]: 20.4 µM (inactive)
- GI50 [45]: 15.4 µM (inactive)
- GI50 [46]: 20.1 µM (inactive)
- GI50 [56]: 17.8 µM (inactive)
- GI50 [47]: 17.4 µM (inactive)
- GI50 [48]: 12.3 µM (inactive)
- GI50 [49]: 19.9 µM (inactive)
- GI50 [57]: 17.9 µM (inactive)
- GI50 [50]: 17.8 µM (inactive)
- GI50 [51]: 17.7 µM (inactive)
- GI50 [52]: 12.6 µM (inactive)
